Test results taken from ChEMBL document CHEMBL1157539, “Thousands of chemical starting points for antimalarial lead identification” (Nature, 2010).

System: Plasmodium falciparum
Assay: GSK_TCMDC: Inhibition of Plasmodium falciparum 3D7 in whole erythrocytes, using parasite LDH activity as an index of growth.
Assay type: functional, organism-based
Conditions: Plasmodium falciparum, 3D7

Work on `Cc1ccc(Nc2nc(N/N=C/c3cc4c(cc3Br)OCO4)nc(Nc3ccc([N+](=O)[O-])cc3)n2)cc1C` yielded an XC50 of 750 nM.
With `CCN(CC)CCN(Cc1ccc(-c2ccc(C(F)(F)F)cc2)cc1)C(=O)Cn1c(SCc2ccc(F)cc2)nc(=O)c2ccccc21` the XC50 was 773 nM.
For `COc1ccc2nc3cc(Cl)ccc3c(NCCCCCCNc3c4ccc(Cl)cc4nc4ccc(OC)cc34)c2c1`, the XC50 was 661 nM.
For `Cc1cc(NC(=O)c2ccco2)ccc1OC1CCN(Cc2ccccc2)CC1`, the XC50 was 531 nM.
`O=C(Cc1ccccc1)NC(CCN1CCC(NC(=O)c2ccc(Cl)cc2)CC1)c1ccc(Cl)c(Cl)c1` (stereo unspecified) showed an XC50 of 916 nM.
With `COc1ccc2nccc([C@@H](O)CN3CCC(NC(=O)C(c4ccsc4)N4CCN(c5ccccc5OC)CC4)CC3)c2c1` (stereo partly specified) the XC50 was 832 nM.
In the case of `COc1ccc(C2CNCc3c2cc(OC)c(OC)c3Cl)cc1` (stereo unspecified), the XC50 was 731 nM.
With `O=C(Nc1ccc(Cl)cc1)c1cccc(CN2CCCN(Cc3cccc(O)c3)CC2)c1` the XC50 was 957 nM.
Compound `NC1CCN(CCNCc2cccc(-c3ccc(-c4nc5cc(C(F)(F)F)ccc5[nH]4)cc3)c2)C1` (stereo unspecified) has an XC50 of 893 nM.
In the case of `COC(=O)c1ccc(-c2ccc(-c3cccnc3)cc2C)cc1`, the XC50 was 662 nM.
Compound `N#CCCN1CCN(Cc2ccc(-c3cccc(-c4nc5cc(F)ccc5[nH]4)c3)cc2)CC1` has an XC50 of 972 nM.
`N#Cc1ccc(N2CCN(Cc3cccc(-c4ccc(-c5nc6cc(C(F)(F)F)ccc6[nH]5)s4)c3)CC2)nc1` was tested, and the XC50 was 1040 nM.
`O=C(Cn1c(CCc2cccc(F)c2F)cc(=O)c2cccnc21)N(CCn1ccnc1)Cc1ccc(-c2ccc(C(F)(F)F)cc2)cc1` gave an XC50 of 672 nM.
For `Clc1cccc(Cl)c1CCNCC1CCN(CC2CCCCC2)CC1`, the XC50 was 212 nM.
Compound `CC(=O)c1ccc2nc[nH]c(=O)c2c1` has an XC50 of 722 nM.
For `COc1ccc2[nH]c(C)cc(=NN=Cc3ccccc3Cl)c2c1`, the XC50 was 601 nM.
Work on `Cc1ccc(-c2nc(N3CCN(C(=O)c4ccco4)CC3)c3ccc(Cl)cc3n2)cc1` yielded an XC50 of 1210 nM.
Compound `CN(C)CCNC(=O)c1cccc(-c2cnc3ccc(NCc4ccc(Cl)c(Cl)c4)nn23)c1` has an XC50 of 698 nM.
`CCC(C)NCC(O)(c1ccc(Cl)cc1)c1ccc(Cl)cc1` (stereo unspecified) gave an XC50 of 843 nM.
For `Cc1cc(N[C@@H](Cc2ccccc2)C(=O)NC2CCCC2)nc(NCc2ccccc2C)n1`, the XC50 was 1230 nM.
Compound `CCOC(=O)c1nc(-c2ccccc2)[nH]c1NC(=S)NC1CCCCC1` has an XC50 of 836 nM.
`c1ccc(CN2CCC(NCc3ccc(-c4ccc(CNC5CCCC5)cc4)cc3)CC2)cc1` gave an XC50 of 294 nM.
`CCCCCCCCCCS(=O)(=O)N[C@H](COCc1cccc(Oc2ccccc2)c1)COP(=O)(O)OC` gave an XC50 of 1020 nM.
With `CO/C(=C\C=C\c1cc2cc(Cl)c(Cl)cc2[nH]1)C(=O)NCCCN1CCN(c2cccc(OC)c2)CC1` the XC50 was 845 nM.
Work on `CC(C)CCN1CCC(Oc2ccc(NC(=O)c3ccccc3)cc2Cl)CC1` yielded an XC50 of 1300 nM.
`CCN(CC)CCNC(=O)c1ccc(NC(=O)c2oc3c(Cl)cccc3c2C)cc1` was tested, and the XC50 was 703 nM.
Compound `COc1ccc(Nc2nccc(-c3ccc(NC(=O)c4cc5cc(F)ccc5[nH]4)cc3)n2)cc1` has an XC50 of 630 nM.
In the case of `NC1CCN(c2nc(NCCCc3ccc(O)cc3)nc(NCc3cccc4ccccc34)n2)CC1`, the XC50 was 724 nM.
`Cn1cnc2c(SCc3ccc(OCc4ccccc4)cc3)ncnc21` showed an XC50 of 557 nM.
`CCOC(=O)C1=C(C)NC2=C(C(=O)C(C(=O)OC)C(C)C2)C1c1cc(Br)c(OCC)c(OC)c1` (stereo unspecified) was tested, and the XC50 was 701 nM.
Compound `CCCCN1CCCC[C@H]1[C@@H](O)c1ccnc2ccc(OCC)cc12` has an XC50 of 773 nM.
Work on `COc1ccc2nccc(CCC3(O)CCC(NCc4cc5c(cc4F)SCC(=O)N5)CC3)c2c1` (stereo unspecified) yielded an XC50 of 675 nM.
With `CC(C)(C)c1ccc(NC(=O)c2cccc(CN3CCCN(CC4CCCCC4)CC3)c2)cc1` the XC50 was 737 nM.
`CC1CCCCN1CCCNc1nc(NCc2ccccc2)c2ccccc2n1` (stereo unspecified) gave an XC50 of 953 nM.
`COc1cc(F)c2nccc([C@@H](O)CN3CCC(NCc4nc5cccc(F)c5[nH]4)CC3)c2c1` gave an XC50 of 847 nM.
In the case of `Cc1nc2ccc3ccc(CNc4ccc(C(=O)N[C@@H](CCC(=O)O)C(=O)N[C@@H](Cc5cccs5)C(=O)O)c(F)c4)cc3c2c(=O)[nH]1`, the XC50 was 787 nM.
Compound `O=C(c1ccc(-c2ccc(Cl)cc2)o1)N1CCc2cc3nccc(N4CCN5CCC[C@H]5C4)c3cc21` has an XC50 of 170 nM.
For `Cc1cc(N[C@@H](Cc2ccccc2)C(=O)Nc2ccccc2)nc(NCCc2cccnc2)n1`, the XC50 was 1340 nM.
Compound `CC(C)COc1cc(C(=O)Nc2cnc3ccccc3c2)ccc1[N+](=O)[O-]` has an XC50 of 776 nM.
Work on `CC(C)(C)c1ccc(CN2CCCCC(NC(=O)c3cc(-c4cccc(Cl)c4)cs3)C2)cc1` (stereo unspecified) yielded an XC50 of 999 nM.
For `Cc1cc(N2CCC(NS(=O)(=O)c3ccccc3)CC2)nc(Nc2cccc(C#N)c2)n1`, the XC50 was 1350 nM.
With `CC(C)(CC1CCCCC1)NC(=O)[C@H](CC1CCCCC1)Nc1ccc(C#N)c2ccccc12` the XC50 was 592 nM.
With `N=C(N)NN=Cc1c2ccccc2c(Cl)c2ccc(Cl)cc12` the XC50 was 225 nM.
In the case of `N#CCCN1CCN(Cc2ccc(-c3ccc(-c4nc5cc(F)ccc5[nH]4)s3)cc2)CC1`, the XC50 was 659 nM.
In the case of `Cc1nc(C)c(-c2ccc(Oc3ccc(OC(F)(F)F)cc3)cc2)c(OC(=O)c2ccccc2)c1Cl`, the XC50 was 182 nM.
`CC(C)c1ccc(NC(=O)c2ccc(C(=O)NC3CCN(Cc4ccsc4)C3)cc2)cc1` (stereo unspecified) showed an XC50 of 1030 nM.
For `CCCCCCCn1c2c(c(=N)c3c1CCC3)CCCC2`, the XC50 was 102 nM.
`Cc1ccc2c(Cc3cnc(N)nc3N)cc(C)c(N)c2n1` gave an XC50 of 1420 nM.
With `CN(C)CCOc1ccc(NC(=O)NC(C)(C)c2nc(-c3ccc(Cl)c(O)c3)c(-c3ccncc3)[nH]2)cc1` the XC50 was 113 nM.
`COc1cc(-c2nnc(SCC(=O)Nc3cc(C)on3)n2C)cc(OC)c1O` showed an XC50 of 177 nM.
Compound `C=C[C@]1(C)C[C@@H](OC(=O)NC(=O)CCCS(=O)(=O)c2nnc(C)s2)[C@]2(C)[C@H](C)CC[C@]3(CCC(=O)[C@H]32)[C@@H](C)[C@@H]1O` has an XC50 of 31.5 nM.
Compound `CCOC(=O)NC1=NC(=N)N(OCc2ccc(Cl)c(Cl)c2)C(C)(C)N1` has an XC50 of 40.7 nM.
With `O=C(Nc1ccc(-c2nc3ccccc3[nH]2)cc1)c1cncc(Br)c1` the XC50 was 814 nM.
`Cc1cc(C(=O)NC2CCN(Cc3ccccc3)CC2)ccc1-c1nc2ccc(C(F)(F)F)cc2[nH]1` was tested, and the XC50 was 891 nM.
`O=C(C=Cc1ccccc1)Nc1ccc(C#CC=Cc2ccc(NC(=O)C=Cc3ccccc3)cc2)cc1` gave an XC50 of 847 nM.
For `CC(C)(CNCc1ccc(F)c(F)c1)c1nc(-c2ccc(Cl)c(O)c2)c(-c2ccncc2)[nH]1`, the XC50 was 660 nM.
With `CCN(CC)CCCC(C)N=c1cc(C=Cc2ccccc2Cl)[nH]c2cc(Cl)ccc12` (stereo unspecified) the XC50 was 805 nM.
With `Cc1cc(O)c(CN(C)Cc2ccc3c(c2)OCO3)cc1C(C)C` the XC50 was 738 nM.
`Cc1cc(OCc2ccncc2)cc2c1C(=O)CC(C)(C)O2` showed an XC50 of 183 nM.
Work on `O=C(NCc1cccc(Br)c1)c1ccc(CNC2CCN(Cc3ccccc3)CC2)cc1` yielded an XC50 of 875 nM.
With `C#CCNCc1ccc(-c2cccc(-c3nc4cccc(C)c4[nH]3)c2)cc1` the XC50 was 818 nM.
`CNCCCNCc1ccc(-c2ccc(F)c(Cl)c2)o1` was tested, and the XC50 was 752 nM.
`COc1cc(Cc2cnc3nc(N)nc(N)c3c2C)cc(OC)c1OC` was tested, and the XC50 was 64.2 nM.
`O=C(/C=C/c1ccccc1Cl)Nc1ccc(Br)c(OCCN2CCC(O)(c3ccccc3)CC2)c1` gave an XC50 of 483 nM.
Compound `N#Cc1ccc2c(c1)CCN(CCC1CCC(NC(=O)/C=C/c3cc(Br)cs3)CC1)CC2` (stereo unspecified) has an XC50 of 997 nM.
Compound `O=C(/C=C/c1ccc(Cl)c(Cl)c1)NCCCCCN1CCC(NC(=O)Nc2cc(Cl)ccc2Cl)CC1` has an XC50 of 433 nM.
`COc1ccc(C2CC(=O)C3=C(C2)NC(C)=C(C(=O)OC2CCCC2)C3c2cccc(O)c2)cc1OC` (stereo unspecified) showed an XC50 of 216 nM.
Compound `CC(=O)Oc1ccc(C(=O)Oc2ccccc2C#CC#N)cc1OC(C)=O` has an XC50 of 320 nM.
For `CCOc1ccc2nc(NC(=O)c3csnn3)sc2c1`, the XC50 was 476 nM.
For `O=C(Cc1cccc(O)c1)NCC(Cc1ccc(O)cc1)c1ccccc1` (stereo unspecified), the XC50 was 643 nM.
`C[C@@H](Oc1cc(-n2cnc3ccc(OCC4CCN(S(C)(=O)=O)CC4)cc32)sc1C(N)=O)c1ccccc1C(F)(F)F` gave an XC50 of 1020 nM.
With `CN(C)c1cccc(NC(=O)N[C@H]2N=C(c3ccccc3)c3ccccc3N(CC(=O)N3CCCC3)C2=O)c1` the XC50 was 254 nM.
`O=C(Nc1ccc(N2CCNCC2)nc1)c1oc(-c2ccccc2)nc1C(F)(F)F` was tested, and the XC50 was 981 nM.
`CS(=O)(=O)CCNCc1cccc(-c2cc3c(Nc4ccc(OCc5cccc(F)c5)c(Cl)c4)ncnc3s2)c1` was tested, and the XC50 was 198 nM.
`CN(C)S(=O)(=O)n1ncc2c3c(N)nc(N)nc3ccc21` gave an XC50 of 178 nM.
`CN1CC[C@@H](Oc2cc(NC(=O)Nc3ccc(Cl)c(C(F)(F)F)c3)ccc2Cl)C1` showed an XC50 of 994 nM.
`O=C(Nc1cccc(-c2ccc(-c3nc4ccccc4[nH]3)s2)c1)c1ccncc1` was tested, and the XC50 was 778 nM.
In the case of `CCOc1cc(C)ccc1N(C1CCN(CCCCNC(=O)c2ccc(-c3ccc(C(F)(F)F)cc3)cc2)CC1)S(=O)(=O)c1ccccc1`, the XC50 was 1020 nM.
Compound `NC1CCN(c2nc(NCCCc3ccc(O)cc3)nc(NCc3ccccc3-c3ccccc3)n2)CC1` has an XC50 of 678 nM.
`O=C(Nc1ccncc1)c1cn(-c2ccccc2)nc1-c1cccs1` gave an XC50 of 977 nM.
`COc1ccc2nc3cc(Cl)ccc3c(Nc3ccc(Sc4ccc(Nc5c6ccc(Cl)cc6nc6ccc(OC)cc56)cc4)cc3)c2c1` gave an XC50 of 199 nM.
Compound `CN(C)c1ccc(NC2=NC(N)=NC(C)(C)N2)cc1` has an XC50 of 223 nM.
Compound `CC[C@H]1CN2CC[C@@H]1C[C@H]2[C@H](O)c1cc(N2CCOCC2)nc2ccc(OC)cc12` has an XC50 of 118 nM.
`Cc1cc(Nc2cccc(C#N)c2)nc(Nc2ccccc2C)n1` gave an XC50 of 861 nM.
For `Cc1c(C(=O)N2CCCC(C(F)(F)F)C2)sc2cccc(F)c12` (stereo unspecified), the XC50 was 599 nM.
`CCOCCCNc1sc(S(=O)(=O)c2ccccc2)nc1S(=O)(=O)c1ccc(C)cc1` showed an XC50 of 809 nM.
Work on `O=C1CCCN1CCCNCc1cccc(-c2ccc(-c3nc4cc(C(F)(F)F)ccc4[nH]3)cc2)c1` yielded an XC50 of 300 nM.
With `O=[N+]([O-])c1cccc(-c2nc(-c3ccc(Br)cc3)[nH]c2-c2ccc(Br)cc2)c1` the XC50 was 759 nM.
Compound `O=C(NC1CCC(CN2CCC(c3c[nH]c4ccccc34)CC2)CC1)[C@H]1Cc2ccccc2CN1` (stereo partly specified) has an XC50 of 948 nM.
`CC[C@H]1CN2CC[C@H]1C[C@@H]2[C@H](O)c1ccnc2ccc(O)cc12` showed an XC50 of 1040 nM.
With `Fc1cc(Cl)ccc1Nc1ccnc2cc(I)ccc12` the XC50 was 1130 nM.
With `O=C(Nc1ccc(-c2nc3cc4ccccc4cc3[nH]2)cc1)c1cccc(Br)c1` the XC50 was 363 nM.
`CCNc1cc(C(=O)N[C@@H](Cc2ccccc2)[C@H](O)CNC2CCC(C)(C)CC2)cc(N2CCCCS2(=O)=O)c1` showed an XC50 of 647 nM.
`CCc1nc2nc(C)cc(Nc3ccc(F)c(Cl)c3)n2n1` showed an XC50 of 974 nM.
Work on `Cc1nc(-c2ccc(-c3ccc(C(=O)Nc4ccc(I)c(OCCN5CCCC5)c4)cc3)c(C)c2)no1` yielded an XC50 of 964 nM.
For `CCCCCC1c2[nH]c3ccccc3c2CCN1C(=O)OCc1ccccc1` (stereo unspecified), the XC50 was 389 nM.
